Data set [1] concerns the target T1, recombinant human SLC38A9 (Homo sapiens, UniProt Q8NBW4).
T1 construct: made in house; host or cells: E. coli Lemo21(DE3)pLysS
T1 sequence (Q8NBW4 1-561): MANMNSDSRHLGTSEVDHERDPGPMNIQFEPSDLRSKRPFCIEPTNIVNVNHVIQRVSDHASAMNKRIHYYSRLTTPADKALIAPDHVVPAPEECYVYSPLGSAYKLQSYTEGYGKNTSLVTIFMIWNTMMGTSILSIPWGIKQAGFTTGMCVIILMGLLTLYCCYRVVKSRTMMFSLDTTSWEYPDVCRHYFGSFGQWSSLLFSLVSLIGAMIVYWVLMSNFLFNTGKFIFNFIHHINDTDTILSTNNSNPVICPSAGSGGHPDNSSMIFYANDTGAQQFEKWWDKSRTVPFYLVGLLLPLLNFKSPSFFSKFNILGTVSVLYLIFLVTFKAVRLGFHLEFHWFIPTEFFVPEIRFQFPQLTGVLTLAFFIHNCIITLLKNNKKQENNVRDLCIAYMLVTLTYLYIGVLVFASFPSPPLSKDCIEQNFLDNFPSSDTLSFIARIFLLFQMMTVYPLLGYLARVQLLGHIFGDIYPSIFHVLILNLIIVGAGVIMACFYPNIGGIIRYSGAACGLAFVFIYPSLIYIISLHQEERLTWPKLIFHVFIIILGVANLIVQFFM
Description: inhibition of [3H]-glutamine uptake in SLC38A9 proteoliposomes. Format: biochemical. The conditions noted are these: for transport capacity of SLC38A9 for amino acids (transport preference): inferred from binding preference, FIG. 3d; for binding capacity of SLC38A9 for amino acids (binding preference): ranking read from FIG. 3d; for competition for glutamine transport (inhibition of [3H]-glutamine uptake): added together with 10 μM [3H]-glutamine, transport at 60 min, MeAIB 1 mM, FIG. 3D, FIG. 10B. On the procedure:
(§1) a, Orientation of SLC38A9 in proteoliposomes. After purification on Ni-chelating chromatography His-SLC38A9 was incubated overnight at 37° C. in absence or in presence of 1 U thrombin. Immunoblot using anti-His or anti-SLC38A9 antibody. b, Proteoliposomes reconstituted with SLC38A9 were centrifuged, resuspended in isosmotic buffer, incubated overnight at 37° C. with 1 U thrombin, solubilized with SDS Immunoblot using anti-His or anti-SLC38A9 antibody. c, Time course of glutamine uptake by SLC38A9 in proteoliposomes reconstituted with purified SLC38A9 or with control empty vector protein. The uptake of 10 μM [^3H]-glutamine was measured at different time intervals. Transport was stopped as described in Materials and Methods. Values represent means of specific transport ±s.d. from 8 different experiments. Significance was estimated by Student's t test (*P<0.01 or **P<0.001). d, Inhibition of the [^3H]-glutamine uptake in proteoliposomes. The indicated amino acids were added together with 10 μM [^3H]-glutamine Transport was measured at 60 min Values represent means of percent residual activity with respect to control (without added inhibitor) ±s.d. from 3 independent experiments. Significance was estimated by Student's t test (*P<0.01 or **P<0.001). e, Time course of glutamine efflux from proteoliposomes reconstituted with purified SLC38A9. Proteoliposomes were incubated with external 10 μM [^3H]-glutamine After 120 min the residual external radioactivity was removed by gel-filtration and the time course of [^3H]-glutamine efflux was measured as for the uptake (see FIG. 3 c). Values represent means of specific transport ±s.d. from 3 different experiments. f and g. HEK293T cells were transfected with the indicated tagged RAGA (0 or RAGB (g) and RAGC constructs or empty vector (−). Anti-HA immunoprecipitates and cell extracts were treated with PNGase and analysed by immunoblot with the indicated antibodies. Mutations are the following: RAGA: Q66L and T21N; RAGB: Q99L and T54N; RAGC: S75N and Q120N
a, Purification of SLC38A9. Lanes represent empty vector control and SLC38A9 expressed in E. coli and purified on Ni-chelating chromatography Immunoblot of the same fractions using anti-His antibody or anti-SLC38A9 are shown. b, Inhibition of the [^3H]-glutamine uptake in proteoliposomes. 1 mM MeAIB (α-(methylamino)isobutyric acid) was added together with 10 μM [^3H]-glutamine Transport was measured at 60 min. Values represent means of percent residual activity with respect to control (without added inhibitor) ±s.d. from 3 independent experiments. Significance was estimated by Student's t test (*P<0.01 or **P<0.001). c, Uptake of the indicated [3H]-labelled amino acids (10 μM) by SLC38A9 in proteoliposomes measured at 60 min. Values represent means of percent in respect to glutamine transport measured in the same experiment ±s.d. from three independent experiments. Significance was estimated by Student's t test (*P<0.01 or **P<0.001). d, Time course of glutamine uptake by SLC38A9 in proteoliposomes reconstituted with the purified protein fraction. The uptake of 10 μM [^3H]-glutamine was measured at different time intervals, in the presence of the indicated intraliposomal sodium concentrations. Transport was stopped as described in Materials and Methods and calculated by subtracting the radioactivity associated to proteoliposomes reconstituted with the empty vector fraction. Values represent means of specific transport ±s.d. from 3 different experiments. e, Effect of pH on the reconstituted SLC38A9. Reconstitution was performed as described in Materials and Methods except that 20 mM Hepes/Tris at the indicated pH was used. Transport was started by adding 10 μM [^3H]-glutamine in 20 mM Hepes/Tris buffer at the indicated pH to proteoliposomes and stopped at 30 min. Results are means of specific transport rate ±s.d. from 3 different experiments f-g HEK293T cells were starved in medium without amino acids and serum for the indicated times. […]

For data set [2], the system named is mTORC1. Put plainly: amino acid-induced mTORC1 activation in HEK293T (immunoblot of phosphorylated S6 kinase, S6, ULK1). Format: cell-based, human. The settings on record: lentivirus-encoded shRNA vs shGFP, starved 50 min, amino acids 10 or 20 min, FIG. 4A. The procedure: After 72 h, cells were treated as in a.d, HeLa were transfected with the indicated siRNA. After 72 h, cells were starved for 50 min in medium without amino acids and serum and then stimulated with amino acids and insulin (1 uM). Cell lysates were analysed by immunoblot with antibodies against phosphorylated threonine 389 S6 kinase, phosphorylated S6 and total S6 kinase e, Model of Sentor/SLC38A9 as part of the lysosomal amino acid-sensing machinery
[…]. HEK293T cells were co-transfected with packaging plasmids and the shRNA-encoding plasmids. Cells were washed 16 h after transfection. Virus-containing supernatants were collected 24 h after washing, filtered and used for infection. After infection, HEK293T cells were selected with puromycin (4 μg/ml). For siRNA-mediated knockdown, HEK293T cells were transfected with HiPerfect (Qiagen) with 60 nM of siRNA pool. After 72 h cells were subjected to amino acid stimulation as described. ON-TARGETplus SMARTpool against SLC38A9 (L-007337-02-0005, Target sequences: […] (SEQ ID NO: 77), […] (SEQ ID NO: 78), […] (SEQ ID NO: 79), […] (SEQ ID NO: 80)), LAMTOR1 (L-020916-02-0010, Target sequences: […] (SEQ ID NO: 81), […] (SEQ ID NO: 82), […] (SEQ ID NO: 83), […] (SEQ ID NO: 84)) and Non-targeting pool (D-001810-10-05) were from ThermoScientific. […]

In data set [3] the test system is HEK293T cells. Description: cell size measurement (nucleus diameter, automated microscopy). Format: cell-based, human. The conditions noted are these: shRNA knockdown vs shGFP, nucleus diameter as proxy, FIG. 5C. The procedure: (§2) a, Table of SLCs belonging to amino acid transporter families robustly expressed in HEK293 and K562 cells as monitored by RNAseq. SLC members of amino acid transporter-containing families^16 and expressed (FPKM>0.5) in both cell lines were ranked according to their expression level. […] Sparse and interphase cells were selected using image analysis and machine learning, and nucleus diameter (μm) was used as robust proxy for cell size^33. […] 10^5 cells were seeded and counted every 24 h. Mean values ±s.d. from triplicates e. HEK293 Flp-In TREx cells inducibly expressing SLC38A9 were treated or not with doxycycline (Dox) for 24 h. Where indicated, cell lysates were treated with PNGase (1 hour, 37° C.) and analysed by immunoblot (IB)
Images were taken by automated microscopy using the PerkinElmer Operetta with 20× magnification in confocal mode. Images were analysed using CellProfiler (www at cellprofiler.org), CellClassifier (http at www.pelkmanslab.org/?page_id=63), Population Context measurement code (https at www.pelkmanslab.org/?page_id=1150) and custom Matlab code written specifically for this study. […] We used the typical nucleus diameter (i.e. the diameter of a circle with the same area as that measured for each nucleus) as a robust proxy for cell size^6. […]

Data set [4] relates to mTORC1. Description: cycloheximide-induced mTORC1 activation in HEK293T (immunoblot). Format: cell-based, human. The conditions noted are these: shRNA, starved 50 min, cycloheximide 25 μg/ml 10 or 20 min, FIG. 4B. On the procedure: After 72 h, cells were treated as in a.d, HeLa were transfected with the indicated siRNA. […] Cell lysates were analysed by immunoblot with antibodies against phosphorylated threonine 389 S6 kinase, phosphorylated S6 and total S6 kinase e, Model of Sentor/SLC38A9 as part of the lysosomal amino acid-sensing machinery
[…]. HEK293T cells were co-transfected with packaging plasmids and the shRNA-encoding plasmids. Cells were washed 16 h after transfection. Virus-containing supernatants were collected 24 h after washing, filtered and used for infection. After infection, HEK293T cells were selected with puromycin (4 μg/ml). For siRNA-mediated knockdown, HEK293T cells were transfected with HiPerfect (Qiagen) with 60 nM of siRNA pool. After 72 h cells were subjected to amino acid stimulation as described. ON-TARGETplus SMARTpool against SLC38A9 (L-007337-02-0005, Target sequences: […] (SEQ ID NO: 77), […] (SEQ ID NO: 78), […] (SEQ ID NO: 79), […] (SEQ ID NO: 80)), LAMTOR1 (L-020916-02-0010, Target sequences: […] (SEQ ID NO: 81), […] (SEQ ID NO: 82), […] (SEQ ID NO: 83), […] (SEQ ID NO: 84)) and Non-targeting pool (D-001810-10-05) were from ThermoScientific.
HEK293T cells were washed with PBS and incubated in amino acid-free RPMI for 50 min Cell were then stimulated for 10 or 20 min by the addition of RPMI containing a two time concentrated solution of amino acids. […]
(In western blotting, separated proteins are transferred to a membrane and probed.)

Data set [5] concerns HEK293T cells. Description: cell proliferation measurement (cell counting every 24 h). Format: cell-based, human. The settings on record: shRNA knockdown vs shGFP, FIG. 5D. The procedure: as §2
The target of data set [6] is T1, recombinant human SLC38A9. Description: uptake and efflux of [3H]-labelled amino acids by SLC38A9 in proteoliposomes. Format: biochemical. The conditions noted are these: for direct transport of [3H]-labelled amino acid by SLC38A9: 10 μM labelled amino acid, 60 min, relative to glutamine transport, FIG. 10C. The procedure: as §1, with “Values represent means of specific transport ±s.d. from 3 different experiments. f and g.” left out
a, Purification of SLC38A9. […] 1 mM MeAIB (α-(methylamino)isobutyric acid) was added together with 10 μM [^3H]-glutamine Transport was measured at 60 min. […] Significance was estimated by Student's t test (*P<0.01 or **P<0.001). c, Uptake of the indicated [3H]-labelled amino acids (10 μM) by SLC38A9 in proteoliposomes measured at 60 min. Values represent means of percent in respect to glutamine transport measured in the same experiment ±s.d. from three independent experiments. […] The uptake of 10 μM [^3H]-glutamine was measured at different time intervals, in the presence of the indicated intraliposomal sodium concentrations. Transport was stopped as described in Materials and Methods and calculated by subtracting the radioactivity associated to proteoliposomes reconstituted with the empty vector fraction. […]

For the molecule `C[C@H](N)C(=O)O` [alanine], in data set [1], the “transport capacity of SLC38A9 for amino acids (transport preference)” value (shortened to “transport capacity of SLC38A9”) is given as “lowest transport capacity” and the “binding capacity of SLC38A9 for amino acids (binding preference)” value (“binding capacity of SLC38A9” for short) is reported as “lowest binding capacity”.
Consider “CCGGGCCUUGACAACAGUUCUAUAUCUCGAGAUAUAGAACUGUUGUCAAGGCUUUUUUG (chemistry not given here; listed as Homo sapiens) [shRNA, shRNA-encoding pLKO.1 targeting SLC38A9 (ThermoFisher), lentivirally delivered; targets nt 1931-1951 of human SLC38A9 mRNA]”, for which the “amino acid-induced mTORC1 activation” value with mTORC1 [2] is reported as “strong reduction”. Further, the cell size result in the data set on HEK293T cells [3] is reported as “clear reduction”. For the same molecule, in the data set on mTORC1 [4], the “cycloheximide-induced mTORC1 activation” value was “impaired”. Also, in the data set on HEK293T cells [5], the “ability of the targeted cells to proliferate” value was “impairment”.
Consider `N=C(N)NCCC[C@H](N)C(=O)O` [arginine], for which, in data set [6], the “direct transport of [3H]-labelled amino acid by SLC38A9” value is “competence”. In addition, the “competition for glutamine transport (inhibition of [3H]-glutamine uptake)” value in data set [1] is “low ability”.
For `NC(=O)CC[C@H](N)C(=O)O` [glutamine], in data set [6] (10 μM glutamine, time course, proteoliposomes, 25° C., pH 6.5), the “initial rate of glutamine transport (uptake)” value was 0.42±0.10 nmol per mg of protein per minute. Besides, the “rate of [3H]-glutamine efflux from proteoliposomes” value in data set [6] (loaded with external 10 μM [3H]-glutamine for 120 min, FIG. 3E) was 1.7 ± 0.30 nmol/min/mg. In addition, in data set [1], the “transport capacity of SLC38A9” value was “highest transport capacity” and the “binding capacity of SLC38A9” value was “highest binding capacity”.
`N[C@@H](CS)C(=O)O` [cysteine]: in data set [1], the “transport capacity of SLC38A9” value was “highest transport capacity” and the “binding capacity of SLC38A9” value is “highest binding capacity”.
Regarding `NC(=O)C[C@H](N)C(=O)O` [[3H]asparagine, asparagine], in data set [6], the “direct transport of [3H]-labelled amino acid by SLC38A9” value is “competence”.
`CNC(C)(C)C(=O)O` [MeAIB, α-(methylamino)isobutyric acid]: the “competition for glutamine transport (inhibition of [3H]-glutamine uptake)” value in data set [1] was “had not effect”.

The values above are taken from patent US20170073690A1, “ANTAGONISTS OF SLC38A9 AND THEIR USE IN THERAPY” (CEMM - Forschungzentrum Fuer Molekulare Medizin GMBH, priority 2014, published 2017).
